# Changes are numbered by the printed parent chain.
# How the values were obtained:
# Type in all cases: biochemical
# [1] = target: T1, Caldanaerobius polysaccharolyticus endo-β-mannanase Man5B, wild type, SEQ ID NO: 31 (Caldanaerobius polysaccharolyticus, UniProt D9J0D7); experiment: Kinetic properties with pNP-linked sugars (Man5B wild type); conditions: reference
# Description: The plasmid constructs were then introduced into E. coli BL-21 CodonPlus (DE3) RIL competent cells by heat shock, and grown overnight in lysogeny broth (LB) agar medium supplemented with ampicillin (100 μg/mL) and chloramphenicol (50 μg/mL) at 37° C. After 12 h, single colonies were selected and used to inoculate fresh LB (10 mL) supplemented with the antibiotics above at the same concentrations, followed by culturing with aeration for 8 h at 37° C. The pre-cultures were then inoculated into fresh LB (1 L) supplemented with ampicillin and chloramphenicol and the cultures were incubated at 37° C. with vigorous aeration (225 rpm/min). […] Aliquots of eluted fractions were analyzed by sodium dodecyl sulfate-polyacrylamide gel electrophoresis (SDS-PAGE) and protein bands were visualized by staining with Coomassie brilliant blue G-250. […] The UV absorbances of the protein solutions were recorded at 280 nm using a Nanoprop 1000 from Thermo Scientific (Waltham, Mass.) and the protein concentrations were calculated using the following extinction coefficients: Man5A-TM1, ε280 nm=189 mM^−1 cm^−1; Man5A-TM2, ε280 nm=113 mM^−1 cm^−1; Man5B, ε280 nm=103 mM^−1 cm^−1.
# Determination of kinetic properties for wild type and mutant Man5B with pNP-linked sugars. Kinetic properties of wild type and mutant Man5B were determined for pNP-β-D-mannopyranoside and pNP-β-D-cellobioside. […]
# [2] = target: T2, Caldanaerobius polysaccharolyticus endo-β-mannanase Man5B (SEQ ID NO: 31) variant E137A (Caldanaerobius polysaccharolyticus, UniProt D9J0D7, E137A); experiment: Kinetic properties with pNP-linked sugars (Man5B E137A); conditions: relative to wild type
# T2 sequence (D9J0D7 1-330 E137A): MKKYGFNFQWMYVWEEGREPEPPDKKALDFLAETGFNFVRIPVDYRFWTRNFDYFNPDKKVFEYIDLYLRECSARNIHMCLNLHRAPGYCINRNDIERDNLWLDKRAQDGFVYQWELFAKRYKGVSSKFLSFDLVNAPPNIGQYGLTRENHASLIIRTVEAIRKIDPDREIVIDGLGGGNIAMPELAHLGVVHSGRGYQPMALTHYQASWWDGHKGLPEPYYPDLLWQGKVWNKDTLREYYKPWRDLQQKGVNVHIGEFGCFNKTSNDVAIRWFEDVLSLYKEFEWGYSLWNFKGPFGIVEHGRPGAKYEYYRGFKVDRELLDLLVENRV
# Description: (§1) Determination of kinetic properties for wild type and mutant Man5B with pNP-linked sugars. Kinetic properties of wild type and mutant Man5B were determined for pNP-β-D-mannopyranoside and pNP-β-D-cellobioside. The substrate concentrations ranged from 0.06 to 10 mM and reactions were performed at 65° C. in citrate buffer (50 mM sodium citrate, pH 5.5). The reactions were equilibrated to 65° C. using a thermostated Cary 300 UV-Vis spectrophotometer, and the reactions were initiated by the addition of wild type (5 nM, final concentration) or mutant (2 μM, final concentration) Man5B. The rate of pNP release was determined by continuously monitoring the absorbance at 400 nm. Initial rate data were then plotted against the substrate concentrations, and the values of the Michaelis-Menten constant (KM) and the maximum velocity (Vmax) were estimated from a nonlinear curve fit using GraphPad Prism v5.01 from GraphPad Software (San Diego, Calif.). The kcat was calculated as the quotient of the Vmax and the concentration of enzyme used in the reaction.
# (§2) Site-directed mutagenesis. Mutagenesis was carried out using PCR-based […] […]
# (§3) Next, to test whether the mutations introduced in Man5B had any effects on the catalytic activity of this enzyme, the catalytic parameters for the wild type and mutant enzymes were determined using pNP-β-D-cellobioside and pNP-β-D-mannopyranoside as substrates.
# [3] = target: T3, Caldanaerobius polysaccharolyticus endo-β-mannanase Man5B (SEQ ID NO: 31) variant E258A (Caldanaerobius polysaccharolyticus, UniProt D9J0D7, E258A); experiment: Kinetic properties with pNP-linked sugars (Man5B E258A); conditions: relative to wild type
# T3 sequence (D9J0D7 1-330 E258A): T2 sequence (D9J0D7 1-330 E137A) with A137E, E258A
# Description: as §1, §2, §3
# [4] = target: T4, Caldanaerobius polysaccharolyticus endo-β-mannanase Man5B (SEQ ID NO: 31) variant E137Q (Caldanaerobius polysaccharolyticus, UniProt D9J0D7, E137Q); experiment: Kinetic properties with pNP-linked sugars (Man5B E137Q); conditions: relative to wild type
# T4 sequence (D9J0D7 1-330 E137Q): T2 sequence (D9J0D7 1-330 E137A) with A137Q
# Description: as §1, §2, §3
# [5] = target: T5, Caldanaerobius polysaccharolyticus endo-β-mannanase Man5B (SEQ ID NO: 31) variant E258Q (Caldanaerobius polysaccharolyticus, UniProt D9J0D7, E258Q); experiment: Kinetic properties with pNP-linked sugars (Man5B E258Q); conditions: relative to wild type
# T5 sequence (D9J0D7 1-330 E258Q): T2 sequence (D9J0D7 1-330 E137A) with A137E, E258Q
# Description: as §1, §2, §3
# [6] = target: T1, Caldanaerobius polysaccharolyticus endo-β-mannanase Man5B, wild type, SEQ ID NO: 31; experiment: Catalytic efficiency with oligosaccharides, HPAEC (Man5B); conditions: value for GM3 higher than that for GM2
# Description: Cloning, expression, and purification of Man5A-TM1, Man5A-TM2 and Man5B. C. polysaccharolyticus was cultured in TYG medium and DNA was isolated from mid-log cultures and purified using the Qiagen DNeasy Blood and Tissue kit with an integrated RNase treatment step. The genome of C. polysaccharolyticus was partially sequenced by the W. M. Keck Biotechnology Center at the University of Illinois at Urbana-Champaign. A Newbler assembly was generated which is comprised of ½ plate of FLX PE 454 data and ½ plate of 8 kb paired-end GSFLX Titanium data using a Genome Sequencer instrument from 454 Life Sciences (Branford, Conn.). The partial genome sequence was uploaded onto the Rapid Annotation using Subsystem Technology (RAST) server (Aziz et al., BMC Genomics, 9:75, 2008). Auto-annotation of the C. polysaccharolyticus partial genome sequence identified ORF0760 as a gene predicted to encode a bifunctional β-D-mannanase/endoglucanase (Man5B). Man5A was previously identified in a recombinant phage library of C. polysaccharolyticus genomic DNA, which was screened for endoglucanase activity (Cann et al., J Bacteriol, 181:1643, 1999) and the full sequence of this gene was also identified in the partial genome sequence for C. polysaccharolyticus. […]
# T1 sequence (D9J0D7 entry or part of it): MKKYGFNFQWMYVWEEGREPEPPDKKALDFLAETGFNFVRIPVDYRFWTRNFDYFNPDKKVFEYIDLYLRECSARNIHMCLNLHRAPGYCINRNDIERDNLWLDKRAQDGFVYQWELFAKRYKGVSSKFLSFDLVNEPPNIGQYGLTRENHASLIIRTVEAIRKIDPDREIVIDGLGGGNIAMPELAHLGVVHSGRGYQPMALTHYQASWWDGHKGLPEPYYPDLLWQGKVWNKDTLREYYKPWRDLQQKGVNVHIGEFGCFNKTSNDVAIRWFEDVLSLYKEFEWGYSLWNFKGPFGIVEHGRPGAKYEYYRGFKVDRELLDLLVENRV
"catalytic efficiency (kcat/Km), GM3 relative to GM2 [6]",Compound,rkcat (residual kcat) [1],rkcat (residual kcat) [2],rkcat (residual kcat) [3],rkcat (residual kcat) [4],rkcat (residual kcat) [5]
,O=[N+]([O-])c1ccc(O[C@@H]2O[C@H](CO)[C@@H](O)[C@H](O)[C@@H]2O)cc1 [pNP-β-D-mannopyranoside],100%,0.04%,0.04%,0.04%,0.03%
20 fold,"OC[C@H]1O[C@H](OC[C@H]2OC(O)[C@@H](O)[C@@H](O)[C@@H]2O[C@@H]2O[C@H](CO)[C@@H](O[C@@H]3O[C@H](CO)[C@@H](O)[C@H](O)[C@@H]3O)[C@H](O)[C@@H]2O)[C@H](O)[C@@H](O)[C@H]1O (stereo partly drawn) [6-galactosyl-mannotriose, α-1,6-galactosyl-mannotriose]",,,,,
,"O=[N+]([O-])c1ccc(O[C@@H]2O[C@H](CO)[C@@H](O[C@@H]3O[C@H](CO)[C@@H](O)[C@H](O)[C@H]3O)[C@H](O)[C@H]2O)cc1 [pNP-cellobioside, pNP-β-D-cellobioside]",100%,0.48%,0.55%,1.96%,0.62%
